The values that follow come from patent US12396984B2, “Managing microbial dysbiosis with temocillin” (Entasis Therapeutics, Inc., priority 2019, dated 2025).

≈ marks a conversion by molar mass, not a printed value. Like-named read-outs stand apart in the source and are kept apart here.

The test system of assay [1] is ATCC 12290 Bacteroides thetaiotaomicron. Put plainly: microbe, parasite or virus in culture. The assay is classed as cell-based. Here is the method:
(§1) Representatives of human gut anaerobic commensals belonging to the 3 major phyla, Firmicutes, Actinobacteria and Bacteroidetes were tested in standard agar-dilution antibacterial assays run under anaerobic conditions. Firmicutes and Actinobacteria are part of the healthy human gut and their levels are compromised in Crohn's patients.

The test system of assay [2] is Firmicutes, Actinobacteria and Bacteroidetes. Put plainly: Agar-dilution antibacterial assay, human gut anaerobic commensals (panel summary). The conditions noted are these: for antibacterial activity against firmicutes, actinobacteria and bacteroidetes (normal GI flora): summary in words. It is filed as cell-based. How it is done:
as §1

The subject of assay [3] is ATCC 15702 Bifidobacterium infantis. Put plainly: Agar-dilution antibacterial assay under anaerobic conditions. It is filed as cell-based. The conditions noted are these: ATCC15702, Actinobacteria. How it is done:
as §1

The subject of assay [4] is MMX 10069 Bifidobacterium adolescentis. The description is as above. The assay is classed as cell-based. Conditions: Actinobacteria. How it is done:
as §1

Assay [5] relates to MMX 3478 Bacteroides fragilis. The assay is described as above. The assay is classed as cell-based. The conditions noted are these: Bacteroidetes. How it is done:
as §1

Assay [6] deals with ATCC 23272 Lactobacillus reuteri. The assay is described as above. It is filed as cell-based. The conditions noted are these: Limosilactobacillus reuteri, ATCC23272, Firmicutes. Here is the method: as §1
For assay [7], the system named is MMX 9797 Clostridium innocuum. The description is as above. It is filed as cell-based. Conditions: Firmicutes. How it is done:
as §1

In assay [8] the test system is MMX 6660 Streptococcus intermedius. The description is as above. Conditions: Firmicutes. The assay is classed as cell-based. How it is done:
as §1

The subject of assay [9] is MMX 9711 Bacteroides salyersiae. The assay is described as above. The assay is classed as cell-based. Conditions: Bacteroidetes. How it is done:
as §1

Assay [10] concerns ATCC 25986 Collinsella aerofaciens. The description is as above. The assay is classed as cell-based. The conditions noted are these: ATCC25986, Actinobacteria. Here is the method: as §1
The subject of assay [11] is MMX 1722 Lactobacillus casei. Described as above. The assay is classed as cell-based. The conditions noted are these: Lacticaseibacillus casei, Firmicutes. How it is done:
as §1

For assay [12], the system named is Crohn's AIEC Isolates. Put plainly: microbe, parasite or virus in culture. The conditions noted are these: Escherichia coli.
For assay [13], the system named is Crohn's AIEC Isolates. The conditions noted are these: AIEC Crohn's clinical isolates.
For assay [14], the system named is AIEC strain (Phylotype D). Put plainly: GI AIEC decolonization murine model. It is filed as in vivo, C57BL/6J mice. Conditions: 30 mg/kg by oral gavage, FIG. 1. Here is the method:
A GI AIEC decolonization murine model studies were performed using a previously published murine model as the basis and run in accordance with animal ethical guidelines at an external contract research organization. Healthy C57BL/6J mice were first administered streptomycin by oral gavage. An AIEC strain (Phylotype D) was then administered at approximately 1-5×10^6 cfu per mouse by oral gavage and fecal pellets were enumerated for AIEC burden. Upon stable colonization (usually after 48 h post-AIEC administration), mice were sorted into three groups of 4 animals each. […] The third group was the control and was given an equivalent volume of sterile saline by oral gavage. Fecal pellets were recovered at various times as indicated on the X-axis of FIG. 1 and AIEC burden quantified by dilution and plating. Two successive fecal pellets were recovered from each mouse per group to sufficiently power the data.

In the next assay the test system is gut microbiome. Put plainly: Post-treatment measurement of microbiome health (16S rRNA gene sequencing of fecal pellets). It is filed as in vivo, mice. The conditions noted are these: 30 mg/kg oral gavage once a day for 3 days, p<0.05. How it is done: Mice were dosed once a day for 3 consecutive days post AIEC stable GI colonization. Fecal pellets from four mice (1-2 per mouse) were pooled and subjected to bacterial DNA enrichment and analyzed using the Illumina MiSeq 2. Bacterial abundance and diversity was quantified using 16S rRNA gene sequencing data, analyzed and compared with naïve mice.

The mark [15] stands for this setting: ATCC12290, Bacteroidetes, anaerobic agar dilution, read-out: MIC.

As to `Cc1ncc([N+](=O)[O-])n1CCO` [Metronidazole], the MIC was 0.25 µg/mL (≈ 1.46 µM) in assay [1] (ATCC12290); 8 µg/mL (≈ 46.7 µM) in assay [3]; 8 µg/mL (≈ 46.7 µM) in [4]; 8 µg/mL (≈ 46.7 µM) in [5]; over 64 µg/mL in assay [6]; 1 µg/mL (≈ 5.84 µM) in assay [7]. For the same compound, the MIC was over 64 µg/mL in [8], 2 µg/mL (≈ 11.7 µM) in [9], 1 µg/mL (≈ 5.84 µM) in [10] and over 64 µg/mL in assay [11]. Besides, the “antibacterial activity against firmicutes, actinobacteria and bacteroidetes (normal GI flora)” value (“antibacterial activity … (normal GI flora)” below) in assay [2] is given as “broad potent antibacterial activities”.
As to `CO[C@H]1/C=C/O[C@@]2(C)Oc3c(C)c(O)c4c(O)c(c5c(nc6cc(C)ccn65)c4c3C2=O)NC(=O)/C(C)=C\C=C\[C@H](C)[C@H](O)[C@@H](C)[C@@H](O)[C@@H](C)[C@H](OC(C)=O)[C@@H]1C` [Rifaximin], the MIC was at most 0.03 µg/mL in assay [1] (setting [15]); 0.125 µg/mL (≈ 0.159 µM) in assay [3]; 0.5 µg/mL (≈ 0.636 µM) in assay [4]; 0.25 µg/mL (≈ 0.318 µM) in assay [5]; 0.06 µg/mL (≈ 0.0763 µM) in [6]; over 32 µg/mL in assay [7]. In addition, the MIC was 0.5 µg/mL (≈ 0.636 µM) in assay [8], 0.5 µg/mL (≈ 0.636 µM) in assay [9], at most 0.03 µg/mL in assay [10] and 0.25 µg/mL (≈ 0.318 µM) in assay [11]. Moreover, the “antibacterial activity … (normal GI flora)” value in assay [2] is listed as “broad potent antibacterial activities”.
For `O=C(O)c1cn(C2CC2)c2cc(N3CCNCC3)c(F)cc2c1=O` [Ciprofloxacin], the “antibacterial activity … (normal GI flora)” value in assay [2] was “broad potent antibacterial activities”. Moreover, the MIC in assay [3] was 4 µg/mL (≈ 12.1 µM); in assay [4], 32 µg/mL (≈ 96.6 µM); in [5], 16 µg/mL (≈ 48.3 µM); in assay [6], 32 µg/mL (≈ 96.6 µM); in assay [8], 1 µg/mL (≈ 3.02 µM); in [9] it was 16 µg/mL (≈ 48.3 µM). Further, the values for the MIC in assay [10] and in assay [11] were 0.5 µg/mL (≈ 1.51 µM) and 1 µg/mL (≈ 3.02 µM), respectively.
`CO[C@@]1(NC(=O)C(C(=O)O)c2ccsc2)C(=O)N2[C@@H](C(=O)O)C(C)(C)S[C@@H]21` (stereo partly drawn) [Temocillin, temocillin] returned an MIC50 in the assay on Crohn's AIEC Isolates [12] of 4 to 8 µg/mL (≈ 9.65 to 19.3 µM). Also, the MIC turned out to be 16 µg/mL (≈ 38.6 µM) against Crohn's AIEC Isolates [12] (Crohn's AIEC isolate #14); 4 µg/mL (≈ 9.65 µM) against Crohn's AIEC Isolates [12] (Crohn's AIEC isolate #32); 16 µg/mL (≈ 38.6 µM) against Crohn's AIEC Isolates [12] (Crohn's AIEC isolate #35); 8 µg/mL (≈ 19.3 µM) with Crohn's AIEC Isolates [12] (Crohn's AIEC isolate #40); 4 µg/mL (≈ 9.65 µM) in the assay on Crohn's AIEC Isolates [12] (Crohn's AIEC isolate #49); 8 µg/mL (≈ 19.3 µM) in the assay with Crohn's AIEC Isolates [12] (Crohn's AIEC isolate #51). For the same compound, the MIC is over 256 µg/mL in assay [1] (setting [15]); over 256 µg/mL in assay [2] (certain firmicutes, actinobacteria and bacteroidetes); over 256 µg/mL in assay [3]; over 256 µg/mL in [4]; 256 µg/mL (≈ 618 µM) in [5]; over 256 µg/mL in assay [6]. Moreover, the MIC in assay [7], in [8], in assay [9], in assay [10] and in [11] was over 256 µg/mL throughout. The “antibacterial activity vs. ciprofloxacin resistant isolates” value in the assay on Crohn's AIEC Isolates [13] is reported as “maintains antibacterial activity vs. ciprofloxacin resistant isolates”. Besides, the “AIEC burden in feces (log10 bacterial burden)” value is “effective at lowering AIEC burden in the murine GI tract and performed as well as the current standard-of-care antibiotic, ciprofloxacin” in assay [14]; “effective at lowering the AIEC burden in the murine GI tract” in assay [14] (listed as temocillin). In addition, in assay [14] (post-treatment), the “AIEC burden after cessation of treatment (rebound)” value is “effective at maintaining the AIEC burden low for days after cessation of treatment”. Besides, the “time AIEC bacterial growth remained low after treatment” value in assay [14] (post-treatment) is recorded as “at least 7 days”. Besides, the “richness (number of OTUs)” value in the assay with gut microbiome (FIG. 2A) is “comparable to the untreated (naive) mice and were higher than ciprofloxacin”. Moreover, the “diversity (Shannon index)” value with gut microbiome (FIG. 2B) was “comparable to the untreated (naive) mice and were higher than ciprofloxacin”. Further, the “antibacterial activity … (normal GI flora)” value in assay [2] is recorded as “little or no effect on the normal GI flora”.
